Where two headings read alike, the source gives them in different places.

Series [1] deals with chicken lymphocytes.
Series [2] concerns weaned piglets. The settings on record: pig, in vivo.

For the compound `C=C1[C@@H]2O[C@@H]3C=C(C)C(=O)[C@@H](O)[C@]3(CO)[C@@]1(C)C[C@H]2O` [DOM-1], the “concentration without any adverse effect on the cell activity” value in series [1] (checking after 28 and after 44 hours) was determined as 58 µg/mL. For the same compound, the “concentration without apparent change of proliferation foci / no negative effects on the cell culture” value is at most 58 µg/mL in series [1] (checking after 20 hours, listed as DOM) and 58 µg/mL in series [1] (checking after 20 hours, listed as deepoxymetabolite).
As to `CC1=C[C@H]2O[C@@H]3[C@H](O)C[C@](C)([C@@]2(CO)[C@H](O)C1=O)[C@]31CO1` [DON, deoxynivalenol], the “action on the cell culture” value in series [1] was “marked damage to the cells”. The “concentration from which a marked adverse effect on the cell activity is present” value in series [1] (checking after 20 hours) was at least 0.625 µg/mL. Moreover, in series [2], the FCR is reported as 1.79, the Feedstuff intake/animal/day came to 226.3, the “Losses (total)” value was 0 and the “Weight increase/animal/day” value is 126.2 g.

The record behind these values is patent US7347997B1, “Method of using a feedstuff additive” (priority 1998, dated 2008).
